Measured values from patent US9981962B2, “Pyrazole derivatives as NIK inhibitors” (Janssen Pharmaceutica NV, priority 2014, dated 2018).

Legend:
[1] = biological target: T1, Recombinant Human NF-kappaB-Inducing Kinase (NIK/MAP3K14) (Homo sapiens, UniProt Q99558); assay: Biological Assay A2: inhibition of auto-phosphorylation of recombinant human NIK/MAP3K14 (AlphaScreen); assay type: biochemical; settings: 0.2 nM GST-tagged NIK, 25 microM ATP, 1 h at 25° C., averaged values
Procedure: Inhibition of Auto-Phosphorylation of Recombinant Human NF-kappaB-Inducing Kinase (NIK/MAP3K14) Activity (AlphaScreen®)
NIK/MAP3K14 auto-phosphorylation activity was measured using the AlphaScreen® (αscreen) format (Perkin Elmer). All compounds tested were dissolved in dimethyl sulfoxide (DMSO) and further dilutions were made in assay buffer. Final DMSO concentration was 1% (v/v) in assays. Assay buffer was 50 mM Tris pH 7.5 containing 1 mM EGTA (ethylene glycol tetraacetic acid), 1 mM DTT (dithiothreitol), 0.1 mM Na3VO4, 5 mM MgCl2, 0.01% Tween® 20. Assays were carried out in 384 well Alphaplates (Perkin Elmer). Incubations consisted of compound, 25 microM Adenosine-5′-triphosphate (ATP), and 0.2 nM NIK/MAP3K14. Incubations were initiated by addition of GST-tagged NIK/MAP3K14 enzyme, carried out for 1 h at 25° C. and terminated by addition of stop buffer containing anti-phospho-IKK Ser176/180 antibody. Protein A Acceptor and Glutathione-Donor beads were added before reading using an EnVision® Multilabel Plate Reader (Perkin Elmer). Signal obtained in the wells containing blank samples was subtracted from all other wells and IC50's were determined by fitting a sigmoidal curve to % inhibition of control versus Log10 compound concentration.

[2] = test system: JJN-3 cells; assay: Biological Assay C: antiproliferative activity on JJN-3 cells (CellTiter-Glo); assay type: cell-based, human; settings: 72 hr treatment, averaged values
Procedure: (§1) Determination of Antiproliferative Activity on LP-1, L-363 and JJN-3 Cells
(§2) All compounds tested were dissolved in DMSO and further dilutions were made in culture medium. Final DMSO concentration was 0.3% (v/v) in cell proliferation assays. Viability was assessed using CellTiter-Glo cell viability assay kit (Promega). The human LP-1, L-363 and JJN-3 cells (DSMZ) were cultured in RPMI 1640 medium supplemented with 2 mM L-glutamine, and 10% fetal calf serum (PAA). Cells were routinely kept as suspension cells at 37° C. in a humidified 5% CO2 atmosphere. Cells were passaged at a seeding density of 0.2×10^6/ml twice a week. Cells were seeded in black tissue culture treated 96-well plates (Perkin Elmer). Densities used for plating ranged from 2,000 to 6,000 cells per well in a total volume of 75 μl medium. After twenty four hours, drugs and/or solvents were added (25 μl) to a final volume of 100 μl. Following 72 hr of treatment plates were removed from the incubator and allowed to equilibrate to room temperature for approx 10 min. 100 ut CellTiter-Glo reagent was added to each well that was then covered (Perkin Elmer Topseal) and shaken on plate shaker for 10 min. Luminescence was measured on a HTS Topcount (Perkin Elmer). Within an experiment, the results for each treatment were the mean of 2 replicate wells. For initial screening purposes, compounds were tested using a 9 point dilution curve (serial 1:3 dilutions). For each experiment, controls (containing no drug) and a blank incubation (containing cells read at the time of compound addition) were run in parallel. The blank value was subtracted from all control and sample values. For each sample, the mean value for cell growth (in relative light units) was expressed as a percentage of the mean value for cell growth of the control.

[3] = test system: L-363 cells; assay: Biological Assay C: antiproliferative activity on L-363 cells (CellTiter-Glo); assay type: cell-based, human; settings: 72 hr treatment, averaged values
Procedure: as §1, §2

[4] = test system: LP-1 cells; assay: Biological Assay C: antiproliferative activity on LP-1 cells (CellTiter-Glo); assay type: cell-based, human; settings: 72 hr treatment, averaged values
Procedure: as §1, §2

[5] = biological target: T1, Recombinant Human NF-kappaB-Inducing Kinase (NIK/MAP3K14); assay: Biological Assay A: inhibition of recombinant human NIK/MAP3K14 activity (MSD, MBP substrate); settings: 10 nM NIK, 25 μM ATP, 1 h at 25° C.; averaged over all measurements on all batches; read-out: Biochemical (MSD IC50)
Procedure: Inhibition of Recombinant Human NF-kappaB-Inducing Kinase (NIK/MAP3K14) Activity Assay buffer was 50 mM Tris pH 7.5 containing 1 mM EGTA (ethylene glycol tetraacetic acid), 1 mM DTT (dithiothreitol), 0.1 mM Na3VO4, 5 mM MgCl2, 0.01% Tween® 20. Assays were carried out in 384 well Mesoscale high binding plates which had been coated with myelin basic protein (MBP) and blocked with bovine serum albumin to prevent non-specific protein binding. All compounds tested were dissolved in dimethyl sulfoxide (DMSO) and further dilutions were made in assay buffer. Final DMSO concentration was 1% (v/v) in assays. Incubations consisted of compound (1% DMSO in control and blank wells), 25 μM Adenosine-5′-triphosphate (ATP), and 10 nM NIK/MAP3K14 substituting enzyme with buffer in the blank wells. Incubations were carried out for 1 h at 25° C. and were followed by washing and sequential incubation with rabbit anti-phospho-MBP and anti-rabbit Ig Sulfotag antibody before reading bound Sulfotag on a Mesoscale Discovery. Signal obtained in the wells containing blank samples was subtracted from all other wells and ICso's were determined by fitting a sigmoidal curve to % inhibition of control versus Log10 compound concentration.

[6] = test system: P-IKKα levels in L363 cells; assay: Biological Assay B: effect of compounds on P-IKKα levels in L363 cells; assay type: cell-based; settings: Homo sapiens, L-363, BAFF stimulated, 2 hr treatment, averaged values, read-out: IKKα Cellular IC50
Procedure: Effect of Compounds on P-IKKα Levels in L363 Cells
All compounds tested were dissolved in DMSO and further dilutions were made in culture medium. Final DMSO concentration was 1% (v/v) in cell assays. The human L363 cells (ATCC) were cultured in RPMI 1640 medium supplemented with GlutaMax and 10% fetal calf serum (PAA). Cells were routinely maintained at densities of 0.2×10^6 cells per ml—1×10^6 cells per ml at 37° C. in a humidified 5% CO2 atmosphere. Cells were passaged twice a week splitting back to obtain the low density. Cells were seeded in 96 well plates (Nunc 167008) at 2×10^6 per ml media in a volume of 75 μl per well plus 25 μl 1 μg/ml recombinant human B-cell activating factor (BAFF/BLyS/TNFSF13B). Seeded cells were incubated at 37° C. in a humidified 5% CO2 atmosphere for 24 hr. Drugs and/or solvents were added (20 μl) to a final volume of 120 μl. Following 2 hr treatment plates were removed from the incubator and cell lysis was achieved by the addition of 30 μl 5× lysis buffer followed by shaking on a plate shaker at 4° C. for 10 min. At the end of this incubation lysed cells were centrifuged at 800×g for 20 min at 4° C. and the lysate was assessed for P-IKKα levels by sandwich immuno-assay carried out in anti-rabbit antibody coated Mesoscale plates. Within an experiment, the results for each treatment were the mean of 2 replicate wells. For initial screening purposes, compounds were tested using an 8 point dilution curve (serial 1:3 dilutions). For each experiment, controls (containing MG132 and BAFF but no test drug) and a blank incubation (containing MG132 and BAFF and 10 μM ADS125117, a test concentration known to give full inhibition) were run in parallel. The blank incubation value was subtracted from all control and sample values. To determine the IC50 a sigmoidal curve was fitted to the plot of % inhibition of control P-IKKα levels versus Log10 compound concentration.

T1 sequence (Q99558 whole entry): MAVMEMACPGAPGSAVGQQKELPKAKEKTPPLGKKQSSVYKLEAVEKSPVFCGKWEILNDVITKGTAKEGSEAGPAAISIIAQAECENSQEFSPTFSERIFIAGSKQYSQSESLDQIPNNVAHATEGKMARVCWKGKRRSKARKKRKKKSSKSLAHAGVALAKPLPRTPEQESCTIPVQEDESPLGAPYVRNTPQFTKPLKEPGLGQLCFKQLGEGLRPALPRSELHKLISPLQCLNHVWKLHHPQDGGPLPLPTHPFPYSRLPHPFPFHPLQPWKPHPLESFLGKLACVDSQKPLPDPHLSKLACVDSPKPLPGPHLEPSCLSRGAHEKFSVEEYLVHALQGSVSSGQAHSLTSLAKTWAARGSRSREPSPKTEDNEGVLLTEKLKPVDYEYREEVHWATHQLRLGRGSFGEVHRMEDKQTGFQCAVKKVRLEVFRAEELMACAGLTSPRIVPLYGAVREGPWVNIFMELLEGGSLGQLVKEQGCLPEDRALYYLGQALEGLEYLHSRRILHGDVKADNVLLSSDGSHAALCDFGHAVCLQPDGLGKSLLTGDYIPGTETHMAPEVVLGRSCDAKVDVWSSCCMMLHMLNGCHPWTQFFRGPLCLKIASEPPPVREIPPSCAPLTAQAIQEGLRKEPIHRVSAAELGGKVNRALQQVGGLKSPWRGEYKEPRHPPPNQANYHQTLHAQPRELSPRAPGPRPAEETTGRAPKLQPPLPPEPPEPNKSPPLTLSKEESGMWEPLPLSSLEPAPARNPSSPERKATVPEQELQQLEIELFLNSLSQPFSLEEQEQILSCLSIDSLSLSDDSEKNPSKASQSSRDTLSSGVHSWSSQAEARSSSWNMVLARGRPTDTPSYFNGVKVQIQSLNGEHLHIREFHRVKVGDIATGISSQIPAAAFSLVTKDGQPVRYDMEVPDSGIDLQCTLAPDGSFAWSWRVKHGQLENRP

Compound	IC50 [1] [µM]	IC50 [5] [µM]	IC50 [6] [µM]	EC50 [2] [µM]	EC50 [3] [µM]	EC50 [4] [µM]	EC50 ([2]; Homo sapiens, JJN-3, 72 h) [µM]	EC50 ([3]; Homo sapiens, L-363, 72 h) [µM]	EC50 ([4]; Homo sapiens, LP-1, 72 h) [µM]
[2H]C([2H])([2H])C(O)(C#Cc1cc2c(-c3c[nH]nc3Cl)cn(C3CCCN(CC)C3)c2cc1F)C([2H])([2H])[2H] (single isomer, unassigned) [Compound 31]	0.146	–	–	0.606	0.436	0.731	–	–	–
CCn1cc(-c2c[nH]nc2C(F)(F)F)c2cc(C#CC(C)(C)O)ccc21 [Compound 4]	0.35	0.581	–	–	–	–	–	–	–
[2H]C([2H])([2H])C(O)(C#Cc1cc2c(-c3c[nH]nc3Cl)cn(C3CCN(C4CC4)CC3)c2cc1F)C([2H])([2H])[2H] [Compound 15]	0.071	–	–	–	–	–	0.608	0.265	0.581
[2H]c1n[nH]c([2H])c1-c1cn(CC)c2cc(F)c(C#CC(C)(C)O)cc12 [Compound 16]	8.51	–	–	–	–	–	–	–	14.2
COCCCn1cc(-c2c[nH]nc2Cl)c2cc(C#CC(C)(O)C3CC3)c(F)cc21 (stereo not drawn) [Compound 17]	0.183	–	–	–	–	–	1.52	3.24	1.4
CN1CCC(n2cc(-c3c[nH]nc3Cl)c3cc(C#CC(C)(O)C4CC4)c(F)cc32)CC1 (stereo not drawn) [Compound 19]	0.19	–	–	–	–	–	0.811	0.632	0.749
CCn1cc(-c2c[nH]nc2Cl)c2cc(C#CC(C)(C)O)cc(Cl)c21 [Compound 23]	0.204	–	–	–	–	–	2.74	5.4	3.61
CCn1cc(-c2cn[nH]c2)c2cc(C#CC(C)(C)O)cc(C(F)(F)F)c21 [Compound 27]	0.552	–	–	–	–	–	–	–	–
CCn1cc(-c2cn[nH]c2)c2cc(C#CC(C)(C)O)cc(C#N)c21 [Compound 28]	0.554	–	–	–	–	–	–	–	–
[2H]C([2H])([2H])C(O)(C#Cc1cc2c(-c3c[nH]nc3Cl)cn(C3CCCN(CC)C3)c2cc1F)C([2H])([2H])[2H] (stereo not drawn) [Compound 30]	0.126	–	–	–	0.201	–	0.379	–	0.397
CN1CCC(n2cc(-c3c[nH]nc3Cl)c3cc(C#CC4(O)CCCC4)c(F)cc32)CC1 [Compound 36]	–	–	–	–	–	–	1.22	0.845	1.21
CN1CCC(n2cc(-c3c[nH]nc3Cl)c3cc(C#CC(C)(O)c4ncccn4)c(F)cc32)CC1 (stereo not drawn) [Compound 37]	0.162	–	–	–	–	–	4.47	2.88	2.51

More lines, in order of falling IC50 [1], values ahead:

IC50 [1] [µM]	IC50 [5] [µM]	IC50 [6] [µM]	Compound	EC50 [2] [µM]	EC50 [3] [µM]	EC50 [4] [µM]	EC50 ([2]; Homo sapiens, JJN-3, 72 h) [µM]	EC50 ([3]; Homo sapiens, L-363, 72 h) [µM]	EC50 ([4]; Homo sapiens, LP-1, 72 h) [µM]
0.086	–	–	CCn1cc(-c2c[nH]nc2Cl)c2cc(C#CC(C)(C)O)c(F)c(F)c21 [Compound 25]	–	–	–	2.23	4.35	3.23
0.084	–	–	Cc1nc(C(C)(O)C#Cc2cc3c(-c4c[nH]nc4Cl)cn(C4CCN(C)CC4)c3cc2F)no1 (stereo not drawn) [Compound 35]	–	–	–	1.36	1.09	4.58
0.076	–	–	[2H]C([2H])([2H])C(O)(C#Cc1cc2c(-c3c[nH]nc3Cl)cn(C3CCCN(CC)C3)c2cc1F)C([2H])([2H])[2H] (single isomer, unassigned) [Compound 32]	0.437	0.31	0.407	–	–	–
0.067	–	–	CC(O)(C#Cc1cc2c(-c3c[nH]nc3Cl)cn(CCCO)c2cc1F)C1CC1 (stereo not drawn) [Compound 21]	–	–	–	1.09	1.93	3.51
0.051	–	–	CCn1cc(-c2cn[nH]c2)c2cc(C#CC(C)(C)O)cc(F)c21 [Compound 26]	–	–	–	1.57	1.13	2.21
0.05	–	–	CN1CC(n2cc(-c3c[nH]nc3Cl)c3cc(C#CC(C)(C)O)c(F)cc32)C1 [Compound 29]	–	–	–	0.375	0.176	0.758
0.043	0.044	0.087	CCn1cc(-c2c[nH]nc2N)c2cc(C#CC(C)(C)O)ccc21 [Compound 2]	–	–	–	0.733	0.99	1.42
0.042	–	–	Cc1cc(C(C)(O)C#Cc2cc3c(-c4c[nH]nc4Cl)cn(C4CCN(C)CC4)c3cc2F)no1 (stereo not drawn) [Compound 34]	–	–	–	1.39	1.22	2.45
0.033	–	–	COCCCn1cc(-c2c[nH]nc2Cl)c2cc(C#CC(C)(C)O)c(F)cc21 [Compound 18]	–	–	–	0.706	1.19	1.51
0.022	0.028	0.122	CC(C)(O)C#Cc1ccc2[nH]cc(-c3cn[nH]c3)c2c1 [Compound 1]	–	–	–	0.432	0.245	0.32
0.021	–	–	CN1CCC(n2cc(-c3c[nH]nc3Cl)c3cc(C#CC(C)(C)O)c(F)cc32)CC1 [Compound 20]	–	–	–	0.061	0.043	0.111
0.018	–	–	CN1CCC(n2cc(-c3c[nH]nc3Cl)c3cc(C#CC(C)(O)c4nccs4)c(F)cc32)CC1 (stereo not drawn) [Compound 33]	–	–	–	0.624	0.875	1.61
0.011	–	0.032	CC(C)(O)C#Cc1cc2c(-c3c[nH]nc3Cl)cn(CCCO)c2cc1F [Compound 22]	–	–	–	0.255	0.43	1.35
0.011	–	0.127	CCn1cc(-c2c[nH]nc2Cl)c2cc(C#CC(C)(C)O)c(F)cc21 [Compound 24]	–	–	–	0.734	0.683	1.58
